Structures can show the parent of a compound that is named as a salt.
Biological target: human kinase Mps-1 (Homo sapiens (Human), UniProt P33981)
Test: Mps-1 kinase assay (TR-FRET, 10 μM ATP)
Assay type: biochemical
Details: N-terminally GST-tagged human full length recombinant Mps-1, read-out: Mps-1 Inhibition, IC50 (Assay with 10 μM ATP)
Protocol: The human kinase Mps-1 phosphorylates a biotinylated substrate peptide. Detection of the phosphorylated product is achieved by time-resolved fluorescence resonance energy transfer (TR-FRET) from Europium-labelled anti-phospho-Serine/Threonine antibody as donor to streptavidin labelled with cross-linked allophycocyanin (SA-XLent) as acceptor. Compounds are tested for their inhibition of the kinase activity.
N-terminally GST-tagged human full length recombinant Mps-1 kinase (purchased from Invitrogen, Karslruhe, Germany, cat. no PV4071) was used. As substrate for the kinase reaction a biotinylated peptide of the amino-acid sequence […]
The concentration of Mps-1 in the assay was adjusted to the activity of the enzyme lot and was chosen appropriate to have the assay in the linear range, typical enzyme concentrations were in the range of about 1 nM (final conc. in the 5 μl assay volume).
The resulting mixture was incubated 1 h at 22° C. to allow the binding of the phosphorylated peptide to the anti-phospho(Ser/Thr)-Europium-antibody. Subsequently the amount of phosphorylated substrate was evaluated by measurement of the resonance energy transfer from the Europium-labelled anti-phospho(Ser/Thr) antibody to the Streptavidin-XLent. Therefore, the fluorescence emissions at 620 nm and 665 nm after excitation at 350 nm was measured in a Viewlux TR-FRET reader (PerkinElmer LAS, Rodgau-Jügesheinn, Germany). The “blank-corrected normalized ratio” (a Viewlux specific readout, similar to the traditional ratio of the emissions at 665 nm and at 622 nm, in which blank and Eu-donor crosstalk are subtracted from the 665 nm signal before the ratio is calculated) was taken as the measure for the amount of phosphorylated substrate.

Chain of human kinase Mps-1 (P33981 whole entry): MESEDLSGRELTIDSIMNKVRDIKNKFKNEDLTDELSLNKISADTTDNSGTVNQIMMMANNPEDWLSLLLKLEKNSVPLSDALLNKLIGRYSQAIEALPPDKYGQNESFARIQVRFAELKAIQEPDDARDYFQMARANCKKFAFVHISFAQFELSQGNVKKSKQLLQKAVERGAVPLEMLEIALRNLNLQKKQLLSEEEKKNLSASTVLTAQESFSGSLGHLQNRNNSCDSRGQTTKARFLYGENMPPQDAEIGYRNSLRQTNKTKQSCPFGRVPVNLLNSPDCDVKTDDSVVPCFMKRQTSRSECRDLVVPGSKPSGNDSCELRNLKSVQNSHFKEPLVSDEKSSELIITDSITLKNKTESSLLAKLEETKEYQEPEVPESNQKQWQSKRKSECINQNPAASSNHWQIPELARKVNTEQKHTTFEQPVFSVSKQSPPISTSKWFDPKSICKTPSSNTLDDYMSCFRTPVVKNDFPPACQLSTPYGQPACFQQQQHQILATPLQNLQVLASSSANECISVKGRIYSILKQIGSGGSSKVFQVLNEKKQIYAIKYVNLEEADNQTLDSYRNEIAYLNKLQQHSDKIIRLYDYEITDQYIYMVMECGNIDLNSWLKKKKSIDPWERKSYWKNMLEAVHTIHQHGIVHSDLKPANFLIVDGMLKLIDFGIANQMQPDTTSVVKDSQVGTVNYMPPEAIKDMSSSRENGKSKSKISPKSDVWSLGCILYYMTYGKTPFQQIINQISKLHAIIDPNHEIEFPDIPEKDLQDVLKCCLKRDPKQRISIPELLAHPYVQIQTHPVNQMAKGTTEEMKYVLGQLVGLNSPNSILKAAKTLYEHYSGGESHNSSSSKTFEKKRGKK

SMILES	IC50 [µM]
CCOc1cc(C(=O)N2CCOCC2)ccc1Nc1nc2ccc(N3CCC(NC(=O)Cc4ccc(F)cc4)CC3)cn2n1 [Example 04.02, N-[1-(2-{[2-ethoxy-4-(morpholin-4-ylcarbonyl)phenyl]amino}[1,2,4]-triazolo[1,5-a]pyridin-6-yl)piperidin-4-yl]-2-(4-fluorophenyl)acetamide]	0.0128
N#Cc1ccccc1Nc1nc2ccc(N3CCN(C(=O)NCc4ccc(F)cc4)CC3)cn2n1 [Example 01.14, 4-{2-[(2-cyanophenyl)amino][1,2,4]triazolo[1,5-a]pyridin-6-yl}-N-(4-fluoro-benzyl)piperazine-1-carboxamide]	0.008
CCOc1cc(C(=O)N2CCOCC2)ccc1Nc1nc2ccc(N3CCC(C(=O)NCC4CC4)CC3)cn2n1 [Example 03.02, N-(cyclopropylmethyl)-1-(2-{[2-ethoxy-4-(morpholin-4-ylcarbonyl)phenyl]-amino}[1,2,4]triazolo[1,5-a]pyridin-6-yl)piperidine-4-carboxamide]	0.0678
CC(C)(C)NC(=O)c1ccc(Nc2nc3ccc(N4CCN(C(=O)NCc5ccc(F)cc5)CC4)cn3n2)c(OCC(F)(F)F)c1 [Example 01.02, 4-(2-{[4-(tert-butylcarbamoyl)-2-(2,2,2-trifluoroethoxy)phenyl]amino}-[1,2,4]triazolo[1,5-a]pyridin-6-yl)-N-(4-fluorobenzyl)piperazine-1-carboxamide]	0.0056
CCN(CC)C(=O)c1ccc(Nc2nc3ccc(N4CCN(C(=O)NCc5ccc(F)cc5)CC4)cn3n2)c(OCC2CC2)c1 [Example 01.07, 4-(2-{[2-(cyclopropylmethoxy)-4-(diethylcarbamoyl)phenyl]amino}[1,2,4]-triazolo[1,5-a]pyridin-6-yl)-N-(4-fluorobenzyl)piperazine-1-carboxamide]	0.0206
CCOc1ncccc1Nc1nc2ccc(N3CCC(NC(=O)Cc4ccc(F)cc4)CC3)cn2n1 [Example 04.03, N-(1-{2-[(2-ethoxypyridin-3-yl)amino][1,2,4]triazolo[1,5-a]pyridin-6-yl}-piperidin-4-yl)-2-(4-fluorophenyl)acetamide]	0.0328
COc1ncccc1Nc1nc2ccc(N3CCN(C(=O)NCc4ccc(F)cc4)CC3)cn2n1 [Example 01.12, N-(4-fluorobenzyl)-4-{2-[(2-methoxypyridin-3-yl)amino][1,2,4]triazolo[1,5-a]pyridin-6-yl}piperazine-1-carboxamide]	0.0186
COc1cc(Nc2nc3ccc(N4CCN(C(=O)NCc5ccc(F)cc5)CC4)cn3n2)ccc1C(=O)N1CCOCC1 [Example 01.11, N-(4-fluorobenzyl)-4-(2-{[3-methoxy-4-(morpholin-4-ylcarbonyl)phenyl]-amino}[1,2,4]triazolo[1,5-a]pyridin-6-yl)piperazine-1-carboxamide]	0.0456
CCNC(=O)c1ccc(Nc2nc3ccc(N4CCC(C(=O)NCC5CC5)CC4)cn3n2)c(OCC)c1 [Example 03.01, N-(cyclopropylmethyl)-1-(2-{[2-ethoxy-4-(ethylcarbamoyl)phenyl]amino}-[1,2,4]triazolo[1,5-a]pyridin-6-yl)piperidine-4-carboxamide]	0.0688
CCOc1cc(C(=O)N2CCOCC2)ccc1Nc1nc2ccc(N3CCN(C(=O)NCc4ccc(F)cc4)CC3)cn2n1 [Example 01.04, 4-(2-{[2-ethoxy-4-(morpholin-4-ylcarbonyl)phenyl]amino}[1,2,4]triazolo-[1,5-a]pyridin-6-yl)-N-(4-fluorobenzyl)piperazine-1-carboxamide]	0.0026
CCNC(=O)c1ccc(Nc2nc3ccc(N4CCN(C(=O)NCc5ccc(F)cc5)CC4)cn3n2)c(OCC)c1 [Example 01.01, 4-(2-{[2-ethoxy-4-(ethylcarbamoyl)phenyl]amino}[1,2,4]triazolo[1,5-a]-pyridin-6-yl)-N-(4-fluorobenzyl)piperazine-1-carboxamide]	0.0031
CCCOc1cc(C(=O)N(CC)CC)ccc1Nc1nc2ccc(N3CCN(C(=O)NCc4ccc(F)cc4)CC3)cn2n1 [Example 01.05, 4-(2-{[4-(diethylcarbamoyl)-2-propoxyphenyl]amino}[1,2,4]triazolo[1,5-a]pyridin-6-yl)-N-(4-fluorobenzyl)piperazine-1-carboxamide]	0.0097
CCOc1ncccc1Nc1nc2ccc(N3CCN(C(=O)NCc4ccc(F)cc4)CC3)cn2n1 [Example 01.13, 4-{2-[(2-ethoxypyridin-3-yl)amino][1,2,4]triazolo[1,5-a]pyridin-6-yl}-N-(4-fluorobenzyl)piperazine-1-carboxamide]	0.0089
CCN(CC)C(=O)c1ccc(Nc2nc3ccc(N4CCN(C(=O)NCc5ccc(F)cc5)CC4)cn3n2)c(OCC(C)C)c1 [Example 01.06, 4-(2-{[4-(diethylcarbamoyl)-2-(2-methylpropoxy)phenyl]amino}[1,2,4]-triazolo[1,5-a]pyridin-6-yl)-N-(4-fluorobenzyl)piperazine-1-carboxamide trifluoroacetate]	0.0285
CCN(CC)C(=O)c1ccc(Nc2nc3ccc(N4CCN(C(=O)NCc5ccc(F)cc5)CC4)cn3n2)c(OC)c1 [Example 01.03, 4-(2-{[4-(diethylcarbamoyl)-2-methoxyphenyl]amino}[1,2,4]triazolo[1,5-a]pyridin-6-yl)-N-(4-fluorobenzyl)piperazine-1-carboxamide]	0.0079
O=C(NCc1ccc(F)cc1)NC1CCN(c2ccc3nc(Nc4ccc(C(=O)N5CCOCC5)cc4OCC(F)(F)F)nn3c2)C1 (stereo not drawn) [Example 05.01, 1-(4-fluorobenzyl)-3-[1-(2-{[4-(morpholin-4-ylcarbonyl)-2-(2,2,2-trifluoroethoxy)phenyl]amino}[1,2,4]triazolo[1,5-a]pyridin-6-yl)pyrrolidin-3-yl]urea]	0.0469
CCOc1cc(C(=O)N2CCOCC2)ccc1Nc1nc2ccc(N3CCC(C(=O)NCc4ccc(F)cc4)CC3)cn2n1 [Example 02.01, 1-(2-{[2-ethoxy-4-(morpholin-4-ylcarbonyl)phenyl]amino}[1,2,4]triazolo-[1,5-a]pyridin-6-yl)-N-(4-fluorobenzyl)piperidine-4-carboxamide]	0.0322
CCN(CC)C(=O)c1ccc(Nc2nc3ccc(N4CCN(C(=O)NCc5ccc(F)cc5)CC4)cn3n2)c(OCC(F)(F)F)c1 [Example 01.09, 4-(2-{[4-(diethylcarbamoyl)-2-(2,2,2-trifluoroethoxy)phenyl]amino}[1,2,4]-triazolo[1,5-a]pyridin-6-yl)-N-(4-fluorobenzyl)piperazine-1-carboxamide trifluoroacetate]	0.0017
CCN(CC)C(=O)c1ccc(Nc2nc3ccc(N4CCN(C(=O)NCc5ccc(F)cc5)CC4)cn3n2)c(OCCOC)c1 [Example 01.08, 4-(2-{[4-(diethylcarbamoyl)-2-(2-methoxyethoxy)phenyl]amino}[1,2,4]-triazolo[1,5-a]pyridin-6-yl)-N-(4-fluorobenzyl)piperazine-1-carboxamide]	0.057
CCNC(=O)c1ccc(Nc2nc3ccc(N4CCC(NC(=O)Cc5ccc(F)cc5)CC4)cn3n2)c(OCC)c1 [Example 04.01, 3-ethoxy-N-ethyl-4-{[6-(4-{[(4-fluorophenyl)acetyl]amino}piperidin-1-yl)-[1,2,4]triazolo[1,5-a]pyridin-2-yl]amino}benzamide]	0.0071
COc1cc(N2CCN(C)CC2)ccc1Nc1nc2ccc(N3CCN(C(=O)NCc4ccc(F)cc4)CC3)cn2n1 [Example 01.10, N-(4-fluorobenzyl)-4-(2-{[2-methoxy-4-(4-methylpiperazin-1-yl)phenyl]-amino}[1,2,4]triazolo[1,5-a]pyridin-6-yl)piperazine-1-carboxamide]	0.0092

Source: US9670202B2, “Substituted triazolopyridines” (BAYER PHARMA AKTIENGESELLSCHAFT, priority 2013, dated 2017)
